From patent publication US20080200439A1, “Methods and compositions for modulating BK channel activity and vasodilation” (University of Tennessee Research Foundation, priority 2006, published 2008)

Key:
[1] = tested on: pressurized resistance cerebral arteries; assay: Artery diameter measurement, pressurized rat middle cerebral arteries; details: 0.8 mM
Protocol: Artery Diameter Measurement. Middle cerebral arteries were isolated from adult male Sprague-Dawley rats (=250 g) or 8- to 12-week-old β1-knockout and C57BL/6 control mice. Rats and mice were decapitated using a guillotine and sharp scissors, respectively. These procedures were approved by the Institutional Animal Care and Use Committee from The University of Tennessee Health Science Center, an AMLAC-accredited institution. Pressurization of arteries was performed as described (Liu et al., 2004). Endothelium was removed by passing an air bubble into the vessel lumen for 90 sec. Diameter changes were monitored through an inverted microscope (Nikon Eclipse TS100, Nikon Corp., Tokyo, Japan), recorded on camera (Sanyo VCB-3512T, Sanyo Electric Corp., Japan), and transferred to a computer. Diameter data were acquired and analyzed using IonWizard 4.4 software (IonOptics Corp., Milton, Mass., United States of America).
Pressurized arteries were extraluminally perfused with physiological saline solution (PSS) (Liu et al., 2004) at a constant rate of 3.75 ml/min using a peristaltic pump Dynamax RP-1 (Rainin Instrument, Inc., Oakland, Calif., United States of America). At this rate, complete washout of the iberiotoxin (Ibtx) effect required >45 min. To keep basal tone under steady behavior, we shortened this period by increasing flow rate ˜3 times during washout of Ibtx, which sometimes evoked a flow-induced dilation (FIG. 1A). Equal volumes (25 ml) of vehicle- vs. LC-containing solutions were applied at equal, constant rate (see above) to the pressurized arterial segment in the chamber via a gravity system. Drugs were dissolved to make stock solutions (see Chemicals) and diluted in PSS to final concentration.
Chemicals. All chemicals were purchased from Sigma (St. Louis, Mo., United States of America), with the exception of 5β-cholanic acid 3α-ol (LC) (Steraloids, Inc., Newport, R.I., United States of America) and Ibtx (Alomone Labs Ltd., Jerusalem, Israel). On the day of the experiment, an LC stock solution (333 mM) in dimethyl sulfoxide (DMSO) was freshly prepared by sonication for 5 min. For arterial tone experiments, the LC stock was diluted 1/10 in DMSO and further diluted in PSS to render final LC concentration. Solution containing vehicle (0.1% DMSO; V/V) was used as control perfusion. For electrophysiological recordings, the LC stock solution was diluted 1/10 in 95% ethanol and further diluted with bath solution to render final LC concentration (3-1,000 μM). The DMSO/ethanol vehicle (≦0.1/≦0.86% final concentrations) in bath solution was used as control.
Data Analysis. Artery diameter response to each compound is shown as a percentage of the diameter obtained before compound application. Arterial diameter and electrophysiological data were analyzed with IonWizard 4.4 (IonOptics Corp., Milton, Mass., United States of America) and pCLAMP 8.0 (Molecular Devices, Union City, Calif., United States of America). Further analysis, plotting, and fitting were conducted using Origin 7.0 (Originlab Corp., Northampton, Mass., United States of America) and InStat 3.0 (GraphPad Software Inc., San Diego, Calif., United States of America).
After myogenic tone development at 60 mm Hg, intact arteries reached a diameter of 154.4±5.2 μm (n=17). Maximal contraction and dilation were checked by perfusing the vessel with 60 mM KCl at the beginning, and Ca^2+-free solution at the end of each experiment (FIGS. 1A & 1B). In all cases (n=17), application of 45 μM LC, that is, concentrations well below LC's critical micellar concentration (CMC) (≧1 mM under our recording conditions) (Roda et al., 1995) caused a significant increase in peak arterial diameter: +6% on top of a transient increase in diameter caused by vehicle-containing solution (FIGS. 1A-1C). […]

cbv1+β1 channels = cbv1+β1 channels (UniProt Q16558+Q62976); assay: Patch-clamp of heteromeric cbv1+β1 channels expressed in Xenopus oocytes; type: cell-based, rat; details: 10 μM; bath application to extracellular surface of O/O patches
Sequence of cbv1+β1 channels (Q62976 1-1148 isoform Q62976-2): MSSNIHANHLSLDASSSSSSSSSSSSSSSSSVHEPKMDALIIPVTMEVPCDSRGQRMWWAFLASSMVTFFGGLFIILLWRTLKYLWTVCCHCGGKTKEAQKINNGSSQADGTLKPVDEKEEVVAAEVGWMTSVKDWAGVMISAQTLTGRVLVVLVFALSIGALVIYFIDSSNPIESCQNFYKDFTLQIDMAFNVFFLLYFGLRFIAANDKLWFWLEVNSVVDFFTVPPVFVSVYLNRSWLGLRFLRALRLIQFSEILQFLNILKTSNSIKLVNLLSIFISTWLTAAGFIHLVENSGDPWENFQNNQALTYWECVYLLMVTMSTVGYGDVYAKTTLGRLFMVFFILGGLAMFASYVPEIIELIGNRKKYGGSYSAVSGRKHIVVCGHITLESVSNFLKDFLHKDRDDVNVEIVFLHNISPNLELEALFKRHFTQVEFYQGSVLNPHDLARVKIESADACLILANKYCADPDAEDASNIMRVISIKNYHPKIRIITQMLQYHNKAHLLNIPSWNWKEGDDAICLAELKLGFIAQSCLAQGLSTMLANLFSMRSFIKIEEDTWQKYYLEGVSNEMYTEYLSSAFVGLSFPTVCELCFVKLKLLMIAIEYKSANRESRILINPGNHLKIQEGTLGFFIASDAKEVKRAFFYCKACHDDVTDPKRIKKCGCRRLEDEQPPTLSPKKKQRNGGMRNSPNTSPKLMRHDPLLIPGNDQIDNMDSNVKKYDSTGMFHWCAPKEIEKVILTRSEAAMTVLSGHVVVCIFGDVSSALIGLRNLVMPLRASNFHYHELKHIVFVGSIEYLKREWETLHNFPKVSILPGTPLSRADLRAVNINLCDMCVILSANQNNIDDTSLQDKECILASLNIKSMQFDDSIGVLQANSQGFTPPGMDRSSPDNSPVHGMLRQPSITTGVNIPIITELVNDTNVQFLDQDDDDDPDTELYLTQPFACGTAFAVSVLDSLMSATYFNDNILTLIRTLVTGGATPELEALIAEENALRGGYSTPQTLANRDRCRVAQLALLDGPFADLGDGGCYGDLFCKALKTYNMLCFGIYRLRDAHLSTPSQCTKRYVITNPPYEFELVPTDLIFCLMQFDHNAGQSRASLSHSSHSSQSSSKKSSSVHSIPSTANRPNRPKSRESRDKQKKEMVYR
Sequence of cbv1+β1 channels (Q16558 whole entry): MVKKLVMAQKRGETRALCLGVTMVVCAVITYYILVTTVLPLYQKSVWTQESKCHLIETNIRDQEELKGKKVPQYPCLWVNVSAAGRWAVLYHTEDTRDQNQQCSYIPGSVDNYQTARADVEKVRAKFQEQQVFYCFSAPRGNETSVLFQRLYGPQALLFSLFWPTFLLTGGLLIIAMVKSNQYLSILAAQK
Description: cRNA Preparation and Injection into Xenopus Oocytes. Full-length cDNA coding for cbv1-subunits was cloned from rat cerebral artery myocytes by PCR and ligated to the PCR-XL-TOPO cloning vector (Invitrogen Corp., Carlsbad, Calif., United States of America) (Jaggar et al., 2005). cDNA coding for cbv1-subunits was cleaved from the cloning vector by BamHI (Invitrogen Corp., Carlsbad, Calif., United States of America) and XhoI (Promega, Madison, Wis., United States of America) and directly inserted into the pOX vector for expression in Xenopus oocytes. pOX-cbv1 was linearized with NotI (Promega, Madison, Wis., United States of America) and transcribed in vitro using T3 polymerase. Beta,-subunit cDNA inserted into the EcoR I/Sal I sites of the pCl-neo expression vector was linearized with NotI and transcribed in vitro using T7 polymerase. Beta4-subunit cDNA inserted into the pOx vector was linearized by NotI and transcribed using T3 polymerase. The mMessage-mMachine kit (Ambion Inc., Austin, Tex., United States of America) was used for transcription. The pOX vector and the cDNA coding for β1-subunits were generous gifts from Aguan Wei (Washington University, Saint Louis, Mo., United States of America) and Maria Garcia (Merck Research Laboratories, Whitehouse Station, N.J., United States of America).
Oocytes were removed from Xenopus laevis and prepared as described (Dopico et al., 1998). cRNA was dissolved in […] at 5 (cbv1) and 15 (β1 or β4) ng/μl; 1-μl aliquots were stored at −70° C. Cbv1 cRNA was injected alone (2.5 ng/μp) or coinjected with either β1 or β4 (7.5 ng/μl) cRNAs, giving molar ratios ≧6:1 (β:α). cRNA injection (23 nl/oocyte) was conducted using a modified micropipette (Drummond Scientific Co., Broomall, Pa., United States of America). The interval between injection and patch-clamp recordings was 48-72 h.
Electrophysiology. Oocytes were prepared for patch-clamp recordings as described (Dopico et al., 1998). Single-channel and macroscopic currents were recorded from inside-out (I/O) or outside-out (O/O) patches. For experiments with oocytes, both bath and electrode solutions contained (mM) 135 K^+ gluconate, 5 EGTA, 1 MgCl2, 15 HEPES, 10 glucose, pH 7.35. For experiments with myocytes, KCl substituted for K^+ gluconate. In all experiments, free Ca^2+ in solution was adjusted to the desired value by adding CaCl2. In most studies, free Ca^2+ in electrode solution=10 μM. In O/O studies with 17β-estradiol, however, free Ca^2+ in the electrode solution=0.3 μM. Nominal free Ca^2+ was calculated with MaxChelator Sliders (C. Patton, Stanford University, California, United States of America) and validated experimentally using Ca^2+-selective electrodes (Corning Incorporated Science Products Division, Corning, N.Y., United States of America).
Patch-recording electrodes were made as described (Dopico et al., 1998). Immediately before recording, the tip of each electrode was fire-polished on a microforge WPI MF-200 (World Precision Instruments, Inc., Sarasota, Fla., United States of America) to give resistances of 5-9 MD when filled with solution. An agar bridge with gluconate or Cl^− as the main anion (for oocyte and myocyte experiments, respectively) was used as ground electrode. After excision from the cell, the membrane patch was exposed to a stream of bath solution containing each agent at final concentration. Solutions were applied onto the patches using a pressurized system DAD12 (ALA Scientific Instruments, New York, N.Y., United States of America) via a micropipette tip with an internal diameter of 100 μm. Experiments were carried out at room temperature (21° C.).
Currents were recorded using an EPC8 amplifier (HEKA Electronics, Lambrecht/Pfalz, Germany) at 1 kHz using a low-pass, eight-pole Bessel filter 902LPF (Frequency Devices, Haverhill, Mass., United States of America). […]

BK channels = details: cited from earlier work

For `Nc1ccncc1` [4-AP, 4-aminopyridine, reference compound], the Decrease in diameter [1] was −9.7±2.3%.
In the case of `C[C@]12CC[C@@H]3c4ccc(O)cc4CC[C@H]3[C@@H]1CC[C@@H]2O` [17β-estradiol], the “Effect on channel activity” value (cbv1+β1 channels) is listed as “channel activation”, the “Concentrations modulating BK activity through the channel α-subunit” value (BK channels; Korovkina et al., 2004) is listed as 0.01 to 1 µM and the “Concentrations increasing BK (hslo) channel activity by interacting with the β1-subunit” value (BK channels; Valverde et al., 1999) is listed as 1 to 30 µM.
In the case of `CC/C(=C(\c1ccccc1)c1ccc(OCCN(C)C)cc1)c1ccccc1` [tamoxifen, Tamoxifen], the “Concentrations decreasing unitary current amplitude (as low as)” value (BK channels; Duncan, 2005) is listed as 1 to 10 µM.
